Experimental data reported in patent US20230131501A1, “THERAPEUTIC USES OF INHIBITORS OF THE RNA-BINDING PROTEIN HuR” (University of Kansas, priority 2020, published 2023).
Read-outs that look alike come from different tables or passages of the source. {Fluorescein} = fluorescein label

Columns and labels:
[1] = test system: MDA-MB-231; assay: Cytotoxicity assay (WST-8); format: cell-based; settings: Homo sapiens, read-out: Cytotoxicity (IC50, μM) MDA-MB-231
Experimental: The cytotoxicity of the tested compounds in several cancer cell lines (HCT116 β/w, MIAPaCa-2, and MDA-MB-231) was determined by a cytotoxicity assay, where the results are provided in Table 1. Cells were seeded in 96-well culture plates (5,000 cells/well) and treated with titrated compounds in triplicate. After 96 h incubation, cell growth medium was removed and proliferation reagent WST-8 (Sigma) was added to each well and incubated at 37° C. for 1-3 h. Absorbance was then measured with a plate reader at 450 nm with correction at 650 nm. The results were expressed as the percentage of absorbance of treated wells versus that of vehicle control. IC50, the drug concentration causing 50% growth inhibition, was calculated via sigmoid curve fitting using GraphPad Prism 5.0. […]

[2] = biological target: T1, HuR protein interaction with the ARE site of Msi1 mRNA (HuR-Msi1^ARE) (Homo sapiens, UniProt Q15717); assay: Fluorescence polarization (FP) assay, inhibition of HuR-Msi1 ARE interaction; format: binding; settings: full-length human HuR, read-out: Ki via FP assay
T1 construct: full-length human HuR protein was produced by the KU COBRE-PSF Protein Purification Group; made in house
T1 sequence (Q15717 whole entry): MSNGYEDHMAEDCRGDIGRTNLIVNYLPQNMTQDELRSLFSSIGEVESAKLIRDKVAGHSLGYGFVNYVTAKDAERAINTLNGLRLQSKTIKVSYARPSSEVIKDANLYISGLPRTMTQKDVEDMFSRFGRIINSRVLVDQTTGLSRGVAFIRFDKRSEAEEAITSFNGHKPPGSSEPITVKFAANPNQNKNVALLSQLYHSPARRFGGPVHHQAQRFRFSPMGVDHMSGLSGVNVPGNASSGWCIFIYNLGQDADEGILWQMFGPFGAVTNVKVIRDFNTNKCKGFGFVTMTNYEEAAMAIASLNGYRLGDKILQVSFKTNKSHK
Excerpt: (§1) A fluorescence polarization (FP)-based binding assay was utilized to assess the inhibition of HuR protein interaction with the ARE site of Msi1 mRNA (“HuR-Msi1^ARE”) by compounds of interest. Briefly, full-length human HuR protein was produced by the KU COBRE-PSF Protein Purification Group and Bcl2, Msi1 and XIAP mRNA sequences (16 nt) were designed based on literature precedent^23,24,31,32. Fluorescein labeled RNAs were purchased from Dharmacon with the following sequences: Msi1 RNA: 5′-GCUUUUAUUUAUUUUG-3′-fluorescein; Bcl-2 RNA: 5′-AAAAGAUUUAUUUAUU-3′-fluorescein; XIAP RNA: 5′-UAGUUAUUUUUA UGUC-3′-fluorescein, and a 16-nt degenerative RNA with 3′-fluorescein label was used as a negative control.

[3] = test system: MIAPaCa-2; assay: Cytotoxicity assay (WST-8); format: cell-based; settings: Homo sapiens, MIA PaCa-2, 96 h incubation
Experimental: (§2) Cells were seeded in 96-well culture plates (5,000 cells/well) and treated with titrated compounds in triplicate. After 96 h incubation, cell growth medium was removed and proliferation reagent WST-8 (Sigma) was added to each well and incubated at 37° C. for 1-3 h. Absorbance was then measured with a plate reader at 450 nm with correction at 650 nm. The results were expressed as the percentage of absorbance of treated wells versus that of vehicle control.

[4] = test system: HCT116 β/w; assay: Cytotoxicity assay (WST-8); format: cell-based; settings: Homo sapiens, HCT-116, 96 h incubation
Experimental: as §2

[5] = biological target: T2, full-length human HuR protein (Homo sapiens, UniProt Q15717); assay: FP-based binding of fluorescein-labeled RNAs to HuR; settings: 16 nt RNA oligo, FITC-RNA 2 nM; read-out: Kd of HuR binding with fluorescein-labeled target RNA
T2 construct: full-length human HuR protein was produced by the KU COBRE-PSF Protein Purification Group; made in house
T2 sequence (Q15717 whole entry): as above
Experimental: FIG. 3 provides the results of a fluorescence polarization (FP)-based binding assay, illustrating that full length HuR binds to FITC-Bcl-2, Msi1, and XIAP RNA but not to scrambled oligo-FITC, according to the working examples. The concentration of FITC-RNA used in the assay is 2 nM.
as §1

[6] = test system: doxorubicin-resistant MDA-MB-231 cell line (231-DR); assay: Cytotoxicity assay, doxorubicin-resistant cells; format: cell-based; settings: 231-DR vs MDA-MB-231
Experimental: (§3) To further mimic clinical conditions and assess overcoming acquired chemo-resistance via compounds of the present technology, docetaxel-resistant and doxorubicin-resistant MDA-MB-231 cells were generated by continuous exposure of cells to increasing concentrations of docetaxel (TXT) or doxorubicin (DXR). Cytotoxicity assays were then performed to assess the chemo-resistance of the produced cell lines as well as assess the sensitivity of such chemo-resistant cell lines to compounds of the present technology.
(§4) Cytotoxicity assays were then performed utilizing concentrations of KH-3 that were below the lethal threshold for the compound (a “sub-lethal concentration”) in combination with docetaxel or doxorubicin to determine whether compounds of the present technology may sensitize cancer cell lines (including chemo-resistance cancer cell lines) to chemotherapy. FIGS. 11A-11B illustrate that sub-lethal concentrations of KH-3 sensitizes both MDA-MB-231 cells and docetaxel-resistant 231-TR cells to docetaxel treatment (FIGS. 11A-11B), and FIGS. 11C-D illustrate that sub-lethal concentrations of KH-3 sensitizes both MDA-MB-231 cells and doxorubicin-resistant 231-DR cells to doxorubicin treatment (FIGS. 11C-11D).

[7] = test system: Musashi 2 (Msi2) mRNA in PC3 cells; assay: mRNA level of HuR target after chemotherapy; format: cell-based
Excerpt: FIGS. 1A-1F provide the results of studies illustrating RNA-binding protein Hu antigen R (HuR) is involved in chemo/radiation-induced tumor response, according to the working examples. […] HuR knock-down by siRNA sensitized cancer cells to X-ray radiation, with an enhancement ratio (ER) of 1.5 versus the negative control (NC) siRNA (FIG. 1F).

[8] = test system: docetaxel-resistant MDA-MB-231 cell line (231-TR); assay: Cytotoxicity assay, docetaxel-resistant cells; format: cell-based; settings: 231-TR vs MDA-MB-231
Experimental: as §3, §4

[9] = test system: protein levels of HuR targets in HCT-116 β/w cells; assay: Western blot of HuR targets; format: cell-based
Experimental: (§5) As HuR promotes stability of its target mRNAs, it is expected that HuR-inhibitors will block HuR function and shorten the half-life (t1/2) of target mRNAs. mRNA stability was determined via quantitative real-time PCR (qRT-PCR) after co-treatment of compounds of the present technology and Actinomycin D (a transcription inhibitor). […] Because HuR also increases the translation of target mRNAs, the effect of compounds of the present technology was tested on protein levels of HuR targets by Western blot analysis.

[10] = test system: protein levels of HuR targets in MDA-MB-231 cells; assay: Western blot of HuR targets; format: cell-based
Experimental: as §5

[11] = test system: HuR target mRNAs (Bcl-2, XIAP, Msi1, HuR) in HCT-116 β/w cells; assay: mRNA stability by qRT-PCR after co-treatment with Actinomycin D; format: cell-based; set-up: dose or concentration left out as unconfirmed
Experimental: HuR target mRNA levels were measured by qRT-PCR.
as §5

[12] = test system: PARP cleavage, LC3 conversion, and RIP3 activation; assay: Western blot of cell death mechanisms; format: cell-based
Excerpt: FIGS. 8A-8C provide the results of Western blot analysis illustrating that KH-3 decreases the protein levels of HuR targets in HCT-116 β/w cells (FIG. 8A) and MDA-MB-231 cells (FIG. 8B) and is involved in cell death mechanisms by inducing PARP cleavage, LC3 conversion, and RIP3 activation (FIG. 8C), according to the working examples.
as §5

[13] = MDA-MB-231, 96 h incubation, WST-8

Row | Compound | Ki [2] [µM] | IC50 [3] [µM] | IC50 [4] [µM] | IC50 [1, 13] [µM] | also measured
1 | O=C(/C=C/c1cc2cc(NS(=O)(=O)c3ccccc3)ccc2s1)NO [KH-1] | 9.2 | 1.21 | 0.86 | – | IC50 ([1]; MDA-MB-231, 96 h): 0.98 µM
2 | Cc1cc(C)c(S(=O)(=O)Nc2ccc3sc(/C=C/C(=O)O)cc3c2)c(C)c1 [KH-4A, (E)-3-(5-(2,4,6-trimethylphenylsulfonamido)benzo[b]thiophen-2-yl)acrylic acid] | 2.92 | > 100 | > 100 | > 100 | –
3 | Msi1 RNA: Fluorescein labeled 16 nt RNA 5′-GCUUUUAUUUAUUUUG-3′-fluorescein (RNA, 3' {Fluorescein}, backbone not given here) | – | – | – | – | Kd [5]: 0.002 µM
4 | Cc1ccc(S(=O)(=O)Nc2ccc3sc(/C=C/C(=O)NO)cc3c2)cc1 [KH-2] | 5.55 | 2.33 | 1.42 | – | IC50 ([1]; MDA-MB-231, 96 h): 1.46 µM
5 | CC(C)(C)c1ccc(S(=O)(=O)Nc2ccc3sc(/C=C/C(=O)O)cc3c2)cc1 [KH-3A, (E)-3-(5-(4-(tert-butyl)phenylsulfonamido)benzo[b]thiophen-2-yl)acrylic acid] | 1.38 | > 100 | > 100 | > 100 | –
6 | Cc1ccc(S(=O)(=O)Nc2ccc3sc(/C=C/C(=O)O)cc3c2)cc1 [KH-2A, (E)-3-(5-(4-methylphenylsulfonamido)benzo[b]thiophen-2-yl)acrylic acid] | 2.92 | > 100 | > 100 | > 100 | –
7 | CCOC(=O)/C=C/c1cc2cc(NS(=O)(=O)c3c(C)cc(C)cc3C)ccc2s1 [KH-4B, (E)-ethyl 3-(5-(2,4,6-trimethylphenylsulfonamido)benzo[b]thiophen-2-yl)acrylate] | > 20 | 30.4 | 91.4 | > 100 | –
8 | O=C(O)/C=C/c1cc2cc(NS(=O)(=O)c3ccccc3)ccc2s1 [KH-1A, (E)-3-(5-(phenylsulfonamido)benzo[b]thiophen-2-yl)acrylic acid] | 5.82 | > 100 | > 100 | > 100 | –
9 | XIAP RNA: Fluorescein labeled 16 nt RNA 5′-UAGUUAUUUUUA UGUC-3′-fluorescein (UAGUUAUUUUUAUGUC; RNA, 3' {Fluorescein}, backbone not given here) | – | – | – | – | Kd [5]: 0.0035 µM
10 | CCOC(=O)/C=C/c1cc2cc(NS(=O)(=O)c3ccccc3)ccc2s1 [KH-1B, (E)-ethyl 3-(5-(phenylsulfonamido)benzo[b]thiophen-2-yl)acrylate] | > 20 | 37.6 | 35.6 | 41.8 | –
11 | CCOC(=O)/C=C/c1cc2cc(NS(=O)(=O)c3ccc(C)cc3)ccc2s1 [KH-2B, (E)-ethyl 3-(5-(4-methylphenylsulfonamido)benzo[b]thiophen-2-yl)acrylate] | > 20 | 39.5 | 40.1 | 43 | –
12 | Bcl-2 RNA: Fluorescein labeled 16 nt RNA 5′-AAAAGAUUUAUUUAUU-3′-fluorescein (RNA, 3' {Fluorescein}, backbone not given here) | – | – | – | – | Kd [5]: 0.0063 µM
13 | COc1cccc2c1C(=O)c1c(O)c3c(c(O)c1C2=O)C[C@@](O)(C(=O)CO)C[C@@H]3O[C@H]1C[C@H](N)[C@H](O)[C@H](C)O1 [doxorubicin] | – | – | – | – | IC50 in 231-DR compared to parental cell line [6]: about 10 fold
14 | CC(=O)O[C@@]12CO[C@@H]1C[C@H](O)[C@@]1(C)C(=O)[C@H](O)C3=C(C)[C@@H](OC(=O)[C@H](O)[C@@H](NC(=O)OC(C)(C)C)c4ccccc4)C[C@@](O)([C@@H](OC(=O)c4ccccc4)[C@H]21)C3(C)C [docetaxel] | – | – | – | – | mRNA levels of HuR target Musashi 2 (Msi2) [7]: increased the mRNA levels; IC50 in 231-TR compared to parental cell line [8]: more than 8 fold
15 | CCOC(=O)/C=C/c1cc2cc(NS(=O)(=O)c3ccc(C(C)(C)C)cc3)ccc2s1 [KH-3B, (E)-ethyl 3-(5-(4-(tert-butyl)phenylsulfonamido)benzo[b]thiophen-2-yl)acrylate] | > 20 | 45.5 | 68.2 | 45.6 | protein levels of HuR targets [9]: not exhibited; protein levels of HuR targets [10]: not exhibited; stability of HuR target mRNAs (Bcl-2, XIAP, Msi1, HuR mRNA) [11]: not exhibited; cell death mechanisms (PARP cleavage, LC3 conversion, RIP3 activation) [12]: not exhibited
16 | Cc1cc(C)c(S(=O)(=O)Nc2ccc3sc(/C=C/C(=O)NO)cc3c2)c(C)c1 [KH-4] | 1.41 | – | – | – | IC50 ([1]; MDA-MB-231, 96 h): 1.04 µM
